Data: paper PMC7766225, “Structure-Based Discovery and Bioactivity Evaluation of Novel Aurora-A Kinase Inhibitors as Anticancer Agents via Docking-Based Comparative Intermolecular Contacts Analysis (dbCICA)” (Molecules, 2020)
Several values for one entry are separate records, joined by “and”; a condition that tells them apart may be missing. Equal entries are not always repeated. Where two headings read alike, the source gives them in different places.

How the values were obtained:
Aurora-A kinase [1] = molecular target: T1, Aurora-A kinase (Homo sapiens, UniProt O14965); details: Table S1, ChEMBL, cited from earlier work
T1 construct: purchased Invitrogen (Carlsbad, CA, USA)
T1 sequence (O14965 1-403): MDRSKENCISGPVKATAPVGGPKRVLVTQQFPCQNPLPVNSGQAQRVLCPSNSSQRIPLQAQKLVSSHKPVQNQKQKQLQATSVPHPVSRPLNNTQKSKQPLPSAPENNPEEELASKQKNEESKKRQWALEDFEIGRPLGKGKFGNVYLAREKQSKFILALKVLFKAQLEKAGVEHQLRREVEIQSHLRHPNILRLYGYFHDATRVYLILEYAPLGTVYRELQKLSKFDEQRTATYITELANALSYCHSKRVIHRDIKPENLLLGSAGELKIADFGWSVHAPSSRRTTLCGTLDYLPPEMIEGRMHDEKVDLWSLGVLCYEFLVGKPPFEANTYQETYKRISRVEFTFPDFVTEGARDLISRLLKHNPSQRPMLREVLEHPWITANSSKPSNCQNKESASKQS

T-47D cells = test: MTT cytotoxicity/anti-proliferation assay, T-47D; format: cell-based; details: Homo sapiens, T47D, 72 h
Protocol: (§1) The human cell-lines triple negative breast adenocarcinoma MDA-MB-231, Pancreas adenocarcinoma PANC1, ductal breast carcinoma T-47D and fibroblasts were preserved and expanded in DMEM medium, while the prostate adenocarcinoma PC-3 cells were cultured in RPMI-1640 growth medium. All growth media were supplemented with 10% heat-inactivated fetal bovine serum (FBS). Cells were maintained under standard culture conditions at 37 °C, 5% CO2 in a humidified incubator. At 80% confluency, cells were washed with 5 mL phosphate buffer saline (1X PBS), then incubated for 4 min with 2–3 mL Trypsin-EDTA 0.25% in order to obtain suspended cells and collect them in a known volume of fresh media for cell count. Cells were counted using conventional hemocytometer and trypan blue dye method.
(§2) The five potent hits that have shown anti-Aurora-A Kinase inhibition percentages above 51% at 10 μM upon conducting the kinase enzyme Inhibition assay (Table 5) were further validated using MTT cytotoxicity Assay. This assay includes 3-(4,5-Dimethylthiazol-2-yl)-2,5-diphenyl tetrazolium bromide (MTT) dye, which is a yellowish tetrazole reduced by viable cells into formazan purple color, which detects the normal mitochondrial role in viable cells. In 96-well coated flat bottom microplates, 100 μL cell suspension of PANC1 or T-47D cells were seeded at a density of 7000 cell/well, and 6000 cell/well for MDA-MB-231, PC-3, or fibroblasts, and incubated under the same conditions at 37 °C. After 24 h, each well was treated with the intended drug concentration diluted in 200 μL fresh media after removal of the old 100-μL media. After 72 h incubation, drug-containing media was aspirated and on each well 100 μL phenol-red free media and 15-μL MTT solution (5 mg/mL (wt/vol) PBS). After 3 h of dark incubation at 37 °C, MTT and media were carefully withdrawn from each well, and 200 μL/well DMSO were added. Colorimetric absorbance (OD) was measured at 570 nm wavelength using 96-well plate reader (Tecan-Sunrise, Männedorf, Switzerland).
(§3) The five compounds were prepared in a stock concentrate of 10 mM using cell culture grade DMSO to be utilized in MTT assay. The cytotoxicity of each compound was initially screened on cancer cell-lines at two concentrations: 50 μM and 25 μM in duplicates. […] The safety index for the compounds with specified IC50 values was evaluated via determining their IC50 values against normal Fibroblast cells. It is noteworthy to mention that DMSO concentration was constant on all the wells (i.e., (0.5% v/v or 1 μL/200 μL) per well), for the treated and the control ones. IC50 values were calculated using nonlinear regression of the dose–response curves using GraphPad Prism software 7.03.

MDA-MB-231 cells = test: MTT cytotoxicity/anti-proliferation assay, MDA-MB-231; format: cell-based, human; details: Homo sapiens; for IC50: MDA-MB-231, 72 h; for inhibition at 25 µM: MDA-MB-231, 25 µM; for inhibition at 25 µM / inhibition at 50 µM: 72 h; for inhibition at 50 µM: MDA-MB-231, 50 µM
Protocol: as §1, §2, §3

PANC1 cells = test: MTT cytotoxicity/anti-proliferation assay, PANC1; format: cell-based, human; details: Homo sapiens; for IC50: PANC-1, 72 h, Panc1, 72 h; for inhibition at 25 µM / inhibition at 50 µM: PANC-1, 72 h; for inhibition at 25 µM: Panc1, 25 µM; for inhibition at 50 µM: Panc1, 50 µM
Protocol: as §1, §2, §3

Aurora-A kinase [2] = molecular target: T1, Aurora-A kinase; test: FRET-based Z'-LYTE kinase enzyme inhibition assay; format: biochemical; details: for inhibition at 10 µM: read-out: % Inhibition at 10 µM; for IC50: nonlinear regression; for Hill Slope: dose-response curve, GraphPad Prism
Protocol: This bioassay was conducted using Z′-LYTE® kinase assay (Invitrogen, Carlsbad, CA, USA) [68, 69]. This biochemical assay depends on fluorescence emission as detection method utilizing a synthetic fluorescence resonance energy transfer (FRET) peptide with two fluorophores: coumarin that work as donor and fluorescein as acceptor [69]. Each hit or compound was dissolved in DMSO to form 10 mM stock solution. Hits were screened at 10 μM concentration. The bioassay was performed in black 384-well plate. For each assay, 100 nL of tested compound stock solution (10 mM) was mixed with 2.4 μL kinase buffer, 5 μL (peptide substrate/Aurora-A Kinase) mixture, and 2.5 μL ATP solution.
The tests were conducted in duplicates.

Fibroblasts = test: MTT cytotoxicity assay on normal fibroblasts (safety index); format: cell-based; details: Homo sapiens, Fibroblast, 72 h
Protocol: as §1, §2, §3

PC-3 cells = test: MTT cytotoxicity/anti-proliferation assay, PC-3; format: cell-based; details: Homo sapiens
Protocol: as §1, §2, §3

[3] = ref Pollard and Mortimore, 2009

CCN(CCO)CCCOc1cc2ncnc(Nc3cc(CC(=O)Nc4cccc(F)c4F)[nH]n3)c2cc1OC [Compound 19]
Ki (Aurora-A kinase [1]; ref Mortlock, et al., 2007): 360 nM

COc1cc2c(Nc3cc(CC(=O)Nc4cccc(F)c4F)[nH]n3)ncnc2cc1OCCCN(CCO)CC(C)C [Compound 21]
Ki (Aurora-A kinase [1]; ref Mortlock, et al., 2007): 18 nM

CCCN(CCO)CCCOc1ccc2c(Nc3cc(CC(=O)Nc4cccc(F)c4F)[nH]n3)ncnc2c1 [Compound 23]
Ki (Aurora-A kinase [1]; ref Mortlock, et al., 2007): 350 nM

CCCN(CCO)CCCOc1ccc2c(Nc3cc(CC(=O)Nc4cccc(F)c4)[nH]n3)ncnc2c1 [Compound 25]
Ki (Aurora-A kinase [1]; ref Mortlock, et al., 2007): 980 nM

Cc1cc(Nc2nc(-c3ccccc3)nc3ccccc23)n[nH]1 [Compound 27]
Ki (Aurora-A kinase [1]; [3]): 58 nM

CC(=O)Nc1ccc(Sc2nc(Nc3cc(C)[nH]n3)c3ccccc3n2)cc1 [Compound 28]
Ki (Aurora-A kinase [1]; [3]): 4 nM

Cc1cc(Nc2nc(-c3ccncc3)nc3ccccc23)n[nH]1 [Compound 29]
Ki (Aurora-A kinase [1]; ref Bebbington, et al., 2009): 81 nM

CC(=O)Nc1ccc(Sc2nccc(Nc3cc(C)[nH]n3)n2)cc1 [Compound 49]
Ki (Aurora-A kinase [1]; ref Bebbington, et al., 2009): 86 nM

CC(=O)Nc1ccc(Sc2nc(C)cc(Nc3cc(C)[nH]n3)n2)cc1 [Compound 50]
Ki (Aurora-A kinase [1]; ref Bebbington, et al., 2009): 18 nM

CC(=O)Nc1ccc(Sc2nc(Nc3cc(C)[nH]n3)cc(-c3ccccc3)n2)cc1 [Compound 51]
Ki (Aurora-A kinase [1]; ref Bebbington, et al., 2009): 2.4 nM

CCC(=O)Nc1ccc(Sc2nc(Nc3cc(C)[nH]n3)cc(C(C)(C)C)n2)cc1 [Compound 54]
Ki (Aurora-A kinase [1]; ref Bebbington, et al., 2009): 10 nM

CCC(=O)Nc1ccc(Sc2nc(Nc3cc(C)[nH]n3)cc(-c3cccnc3)n2)cc1 [Compound 55]
Ki (Aurora-A kinase [1]; ref Bebbington, et al., 2009): 3.9 nM

CCC(=O)Nc1ccc(Sc2nc(Nc3cc(C)[nH]n3)cc(N3CCC3)n2)cc1 [Compound 56]
Ki (Aurora-A kinase [1]; ref Bebbington, et al., 2009): 2.4 nM

CCC(=O)Nc1ccc(Sc2nc(Nc3cc(C)[nH]n3)cc(N3CCCCC3)n2)cc1 [Compound 57]
Ki (Aurora-A kinase [1]; ref Bebbington, et al., 2009): 1.6 nM

CCC(=O)Nc1ccc(Sc2nc(Nc3cc(C)[nH]n3)cc(N3CCOCC3)n2)cc1 [Compound 58]
Ki (Aurora-A kinase [1]; ref Bebbington, et al., 2009): 1.7 nM

CCC(=O)Nc1ccc(Sc2nc(Nc3cc(C)[nH]n3)cc(N3CCNCC3)n2)cc1 [Compound 59]
Ki (Aurora-A kinase [1]; ref Bebbington, et al., 2009): 3.7 nM

CCC(=O)Nc1ccc(Sc2nc(Nc3cc(C)[nH]n3)cc(N3CCN(C)CC3)n2)cc1 [Compound 60]
Ki (Aurora-A kinase [1]; ref Bebbington, et al., 2009): 1.6 nM

CCC(=O)Nc1ccc(Sc2nc(Nc3cc(C)[nH]n3)cc(N3CCN(C(C)(C)C)CC3)n2)cc1 [Compound 61]
Ki (Aurora-A kinase [1]; ref Bebbington, et al., 2009): 1.3 nM

Cc1nc(C)c(-c2ccnc(Nc3ccc(N(C)C)cc3)n2)s1 [Compound 65]
Ki (Aurora-A kinase [1]; ref Wang, et al., 2010): 6.9 nM

CNc1ccc(Nc2nccc(-c3sc(C)nc3C)n2)cc1 [Compound 66]
Ki (Aurora-A kinase [1]; ref Wang, et al., 2010): 18 nM

Cc1nc(C)c(-c2ccnc(Nc3ccc(N)cc3)n2)s1 [Compound 67]
Ki (Aurora-A kinase [1]; ref Wang, et al., 2010): 31 nM

COc1cc(Nc2nccc(-c3sc(C)nc3C)n2)cc(OC)c1OC [Compound 68]
Ki (Aurora-A kinase [1]; ref Wang, et al., 2010): 0.4 nM

CNc1nc(C)c(-c2ccnc(Nc3cc(OC)c(OC)c(OC)c3)n2)s1 [Compound 69]
Ki (Aurora-A kinase [1]; ref Wang, et al., 2010): 1 nM

CCNc1nc(C)c(-c2ccnc(Nc3cc(OC)c(OC)c(OC)c3)n2)s1 [Compound 70]
Ki (Aurora-A kinase [1]; ref Wang, et al., 2010): 3 nM

Cc1cc(O)c(/N=N/c2ccc(C(=O)O)cc2)cc1C [Hit 88]
inhibition at 25 µM (T-47D cells): 26.5 ± 0.01%
inhibition at 50 µM (T-47D cells): 34.9 ± 0.013%
IC50 (T-47D cells): > 50000 nM
IC50 (MDA-MB-231 cells): > 50000 nM
inhibition at 25 µM (MDA-MB-231 cells): 21.1 ± 0.05%
inhibition at 50 µM (MDA-MB-231 cells): 31.3 ± 0.06%
IC50 (PANC1 cells): > 50000 nM
inhibition at 25 µM (PANC1 cells): 11.3 ± 0.01%
inhibition at 50 µM (PANC1 cells): 15.1 ± 0.006%
inhibition at 10 µM (Aurora-A kinase [2]; 10 µM, duplicates, Z'-LYTE): 75%
IC50 (Aurora-A kinase [2]; 0.1–100 μM, duplicates, read-out: IC50): 2600 nM and 2610 nM
Hill Slope (Aurora-A kinase [2]): 1.77

COc1cc(/C=N/c2ccc3ccccc3c2)ccc1O [Hit 112]
inhibition at 25 µM (T-47D cells): 34.7 ± 0.012%
inhibition at 50 µM (T-47D cells): 48.11 ± 0.003%
IC50 (T-47D cells): > 50000 nM
inhibition at 25 µM (Fibroblasts; 25 µM): 53.9 ± 0.018%
inhibition at 50 µM (Fibroblasts; 50 µM): 54.3 ± 0.003%
IC50 (Fibroblasts): 15100 ± 3000 nM
IC50 (MDA-MB-231 cells): 17900 ± 1400 nM
inhibition at 25 µM (MDA-MB-231 cells): 63.3 ± 0.021%
inhibition at 50 µM (MDA-MB-231 cells): 74.7 ± 0.012%
IC50 (PANC1 cells): > 50000 nM
inhibition at 25 µM (PANC1 cells): 16 ± 0.02%
inhibition at 50 µM (PANC1 cells): 22.5 ± 0.012%
inhibition at 10 µM (Aurora-A kinase [2]; 10 µM, duplicates, Z'-LYTE): 55%
IC50 (PC-3 cells; PC-3, 72 h): > 50000 nM
inhibition at 25 µM (PC-3 cells; PC-3, 25 µM, 72 h): 19.2%
inhibition at 50 µM (PC-3 cells; PC-3, 50 µM, 72 h): 32.7%

CCCC1N(Cc2ccc(OC)cc2)CCN1Cc1ccc(OC)cc1 [Hit 130]
inhibition at 25 µM (T-47D cells): 25.5 ± 0.016%
inhibition at 50 µM (T-47D cells): 31.3 ± 0.008%
IC50 (T-47D cells): > 50000 nM
IC50 (MDA-MB-231 cells): > 50000 nM
inhibition at 25 µM (MDA-MB-231 cells): 22.9 ± 0.02%
inhibition at 50 µM (MDA-MB-231 cells): 45.5 ± 0.05%
IC50 (PANC1 cells): > 50000 nM
inhibition at 25 µM (PANC1 cells): 20.3 ± 0.012%
inhibition at 50 µM (PANC1 cells): 34.9 ± 0.017%
IC50 (Aurora-A kinase [2]; IC50, 0.1–100 μM, duplicates): 5890 nM and 5900 nM
Hill Slope (Aurora-A kinase [2]): 7.6
inhibition at 10 µM (Aurora-A kinase [2]): 86%

O=C(O)c1ccc(Nc2ccnc3cc(Cl)ccc23)cc1O [Hit 141]
inhibition at 25 µM (T-47D cells): 21.11 ± 0.01%
inhibition at 50 µM (T-47D cells): 25.04 ± 0.02%
IC50 (T-47D cells): > 50000 nM
IC50 (MDA-MB-231 cells): > 50000 nM
inhibition at 25 µM (MDA-MB-231 cells): 2.9 ± 0.03%
inhibition at 50 µM (MDA-MB-231 cells): 11.1 ± 0.05%
IC50 (PANC1 cells): > 50000 nM
inhibition at 25 µM (PANC1 cells): 11.4 ± 0.003%
inhibition at 50 µM (PANC1 cells): 15.7 ± 0.02%
inhibition at 10 µM (Aurora-A kinase [2]; 10 µM, duplicates, Z'-LYTE): 51%
